{"source": "the SangsterLogP compilation"}
{"test": "method code SF-AS, from PMID: 8047542"}
{"smiles": "CC(C)COC(=O)C(C)c1ccc(CC(C)C)cc1", "note": "(configuration not stated)", "logP": 2.68}
{"smiles": "CCCCCCCCCCCCCCCCOC(=O)C(C)c1ccc(CC(C)C)cc1", "note": "(configuration not stated)", "logP": 3.71}
{"smiles": "CCCCCCCOC(=O)C(C)c1ccc(CC(C)C)cc1", "note": "(configuration not stated)", "logP": 3.75}
{"smiles": "CCCCOC(=O)C(C)c1ccc(CC(C)C)cc1", "note": "(configuration not stated)", "logP": 3.13}
{"smiles": "COC(=O)C(C)c1ccc(CC(C)C)cc1", "note": "(configuration not stated)", "logP": 2.97}
{"smiles": "CCC(C)OC(=O)C(C)c1ccc(CC(C)C)cc1", "note": "(configuration not stated)", "logP": 3.06}
{"smiles": "CCOC(=O)C(C)c1ccc(CC(C)C)cc1", "note": "(configuration not stated)", "logP": 3.02}
{"smiles": "CCCOC(=O)C(C)c1ccc(CC(C)C)cc1", "note": "(configuration not stated)", "logP": 2.88}
{"smiles": "CC(C)Cc1ccc(C(C)C(=O)OC(C)C)cc1", "note": "(configuration not stated)", "logP": 2.3}
{"smiles": "CC(C)Cc1ccc(C(C)C(=O)OC(C)(C)C)cc1", "note": "(configuration not stated)", "logP": 2.37}
{"smiles": "CCCCCOC(=O)C(C)c1ccc(CC(C)C)cc1", "note": "(configuration not stated)", "logP": 3.3}
{"smiles": "CCCCCCOC(=O)C(C)c1ccc(CC(C)C)cc1", "note": "(configuration not stated)", "logP": 3.55}
